Source: patent US20180161314A1, “Methods for Treating Hyperuricemia and Related Diseases” (Ardea Biosciences, Inc., priority 2010, published 2018)
Read-outs that look alike come from different tables or passages of the source.

Legend:
[1] = tested on: gout patients with hyperuricemia; type: in vivo; details: for Mean absolute sUA reduction / Mean sUA % change / Mean sUA level: ± SE; for % Response rate for sUA falling below 4 mg/dL / % Response rate for sUA falling below 5 mg/dL / % Response rate for sUA falling below 6 mg/dL: allopurinol 300 mg
Procedure: Study Objectives • To measure the effect of drug 1, alone and in combination with allopurinol, on serum urate concentration. • To evaluate the safety and tolerability of drug 1 in combination with allopurinol.
The study is open-label in gout patients with hyperuricemia, involving 2 panels of ˜10-12 patients per panel. The panels may be enrolled simultaneously.
Panel 1 receives a once-daily dose of allopurinol 300 mg alone for 7 days and for an additional 7 days in combination with a once-daily dose of drug 1 400 mg. Patients then receive 7 days of a once-daily dose of drug 1 400 mg alone. Panel 2 follows the same regimen as panel 1, at doses of allopurinol 300 mg and drug 1 600 mg.
• Day −10 to Day 28: colchicine prophylaxis; or • Day −7 to Day 28: colchicine prophylaxis (for patients not washing out from ULT) • Days 1-7: allopurinol 300 mg qd • Days 8-14: drug 1 400 mg qd+allopurinol 300 mg qd • Days 15-21: drug 1 400 mg qd
• Day −10 to Day 28: colchicine prophylaxis; or • Day −7 to Day 28: colchicine prophylaxis (for patients not washing out from ULT) • Days 1-7: allopurinol 300 mg qd • Days 8-14: drug 1 600 mg qd+allopurinol 300 mg qd • Days 15-21: drug 1 600 mg qd
Gout patients on a urate lowering therapy (ULT), have previously taken a ULT or who have never taken a ULT are eligible to participate. Screening procedures to determine patient eligibility are performed within approximately 14 days of the first dose of study drug (Day 1). Subjects currently on ULT wash-out for at least 10 days before Day 1, and begin colchicine (Colcry® 0.6 mg qd, URL Pharma) as prophylaxis for gout flares at the beginning of the wash-out period. Subjects not on ULT begin colchicine administration at least 7 days prior to Day 1. Patients intolerant of colchicine during the screening period are considered screen failures and not enrolled. Prophylactic administration of colchicine continues for 7 days after the last dose of study medication.
Eligible patients report to the study center early morning on Days −1, 7, 14, and 21 (or the afternoon/evening the day before). Serial blood samples are collected on Days −1, 7, 14, and 21. Study medication is administered to each patient and taken orally every morning with approximately 240 mL of water, at approximately the same time of the morning every day, and approximately 30 minutes after finishing a full breakfast (approximately 650 Kcal and 35% fat); the breakfast is standardized on Days −1 to 21.
Inclusion Criteria • Patient is male or post-menopausal or surgically sterile female. • Patient is 18-80 years of age. • Patient meets one or more criteria for the diagnosis of gout as per the American Rheumatism Association (ARA) Criteria for the Classification of Acute Arthritis of Primary Gout (Appendix B). • Patient sUA≥8 mg/dL at screening. • Patient willing and able to give informed consent and adhere to visit/protocol schedules • No clinically relevant abnormalities in blood pressure (BP), heart rate (HR), body temperature and respiratory rate as per Investigator's judgment.
Subject urate serum levels are recorded, and any safety concerns assessed (by adverse events, clinical laboratory test results, vital signs, 12-lead ECGs, and physical examinations). […] Urate serum concentrations are evaluated for treatment- and/or time-dependent changes relative to baseline (Day −1), and may be expressed both in standard units (mg/dL) and as changes from baseline (e.g., percent change, absolute change, maximal change, and time or day of maximal change).
Drug 1 was tested according to the protocol described in Example 21.
Serum urate levels were measured and absolute and % reduction levels from baseline calculated, for Allopurinol monotherapy, Drug 1 monotherapy and Allopurinol plus Drug 1 combination.

[2] = tested on: hyperuricemic subjects with symptomatic gout; test: Pilot study of drug 1 versus placebo and open-label allopurinol in hyperuricemic subjects with symptomatic gout (Examples 1, 2, 20); type: in vivo, human
Procedure: Study Objectives • To compare the proportion of subjects whose sUA level is <6.0 mg/dL following 2 weeks of continuous treatment with drug 1 compared to allopurinol and placebo. • To evaluate the percent reduction from baseline in sUA levels following 2 weeks of continuous treatment with drug 1 in combination with allopurinol. • To evaluate the proportion of subjects whose sUA levels are <6.0 mg/dL, <5.0 mg/dL and <4.0 mg/dL at each visit. • To evaluate the absolute and percent reduction from baseline in sUA levels at each visit. • To evaluate the maximum percent reduction in sUA levels from baseline during the entire treatment period. • To evaluate percent change in 24-hour urine uric acid level from baseline to Day 15. • To evaluate the safety and tolerability of drug 1 in subjects with gout. • To evaluate the pharmacokinetics, safety and tolerability of drug 1 in combination with allopurinol in subjects with gout.
A randomized, double-blind, placebo-controlled, dose titration, safety and pharmacodynamics pilot study, in approximately 26 hyperuricemic subjects with symptomatic gout enrolled at 2-3 investigational sites in N America, of: • drug 1 versus placebo and open-label allopurinol (Cohort 1); and • drug 1 in combination with allopurinol versus continued allopurinol alone (Cohort 2)
Subjects are randomized 7 days prior to Day 1 in a double-blind fashion to receive drug 1, drug 1 matching placebo, or open-label allopurinol (Cohort 1) or drug 1 or drug 1 matching placebo in combination with allopurinol (Cohort 2).
To reduce the incidence of gout flares, colchicine 0.6 mg qd is administered to all subjects starting 14 days prior to the Baseline (Day 1) visit. Subjects continue colchicine administration throughout the Treatment Period, discontinuing at the End of Study visit (one week after the last dose of study medication).
Cohort 1 approx 20 subjects randomized in 2:1:1 ratio treatment groups—drug 1:placebo:allopurinol.
Subjects randomized to double-blind treatment: • approx 10 subjects randomized to receive drug 1 200 mg qd (4 drug 1 50 mg capsules/day) for one week, followed by drug 1 400 mg qd (8 drug 1 50 mg capsules/day) for one week. • 5 subjects randomized to receive drug 1 matching placebo qd for 2 weeks (week 1-4 drug 1 matching placebo capsules; week 2-8 drug 1 matching placebo capsules)
Subjects randomized to open-label treatment: • 5 subjects randomized to receive allopurinol 300 mg tablets qd for 2 weeks Cohort 2 approx 6 subjects randomized in 5:1 ratio treatment groups—drug+allopurinol:placebo+allopurinol
For Cohorts 1 and 2, subjects randomized to double-blind treatment take drug 1 or drug 1 matching placebo every 24 hours (±1 h) (morning dose) for a period of 2 weeks. For Cohort 1, subjects randomized to open-label treatment take allopurinol every 24 hours (±1 h) (morning dose) for a period of 2 weeks.
Subjects are requested to then drink approximately 240 mL of water 1-2 hours after dosing.
1. Male or post-menopausal or surgically sterile female. 2. 18-75 years of age. 3. Hyperuricemic, defined as: Cohort 1: Screening serum uric acid is ≥8 mg/dL Cohort 2: Screening serum uric acid is ≥10 mg/dL 4. Subject meets one or more of the 1977 American Rheumatism Association (ARA) criteria for the diagnosis of acute arthritis of primary gout. 5. Subject is willing and able to give informed consent and adhere to visit/protocol schedules.
Blood samples (4.5 mL) are collected and sUA levels determined at Screening (repeated as necessary prior to Day 1), Baseline (Day 1) (1 hour and 8 hours post-dose), Day 8 (trough, 1 hour and 8 hours post-dose), Day 9 (24 hours after Day 8 dose), and Day 14 (trough and 8 hours post-dose), Day 15 and End of Study. An additional sUA level is obtained on Day 7 for Cohort 2 subjects prior to the first dose of allopurinol.
Primary pharmacodynamics parameter is the proportion of subjects with serum uric acid <6.0 mg/dL following 2 weeks of treatment. […]

[3] = Drug 1 400 mg panel: allopurinol 300 mg qd days 1-7, combination days 8-14, drug 1 400 mg qd alone days 15-21
[4] = Drug 1 600 mg panel: allopurinol 300 mg qd days 1-7, combination days 8-14, drug 1 600 mg qd alone days 15-21

Compound: Oc1ncnc2[nH]ncc12 [Allopurinol, 1H-pyrazolo[3,4-d]pyrimidin-4(2H)-one, reference compound]
- Mean absolute sUA reduction [1, 3]: -3.1 ± 0.28 mg/dL
- Mean sUA % change [1, 3]: −32.2 ± 2.1%
- Mean sUA level [1, 3]: 6.5 ± 0.16 mg/dL
- % Response rate for sUA falling below 4 mg/dL ([1]; Drug 1 400 mg panel): 0%
- % Response rate for sUA falling below 5 mg/dL ([1]; Drug 1 400 mg panel): 0%
- % Response rate for sUA falling below 6 mg/dL ([1]; Drug 1 400 mg panel): 10%
- Mean absolute sUA reduction [1, 4]: -2.6 ± 0.26 mg/dL
- Mean sUA % change [1, 4]: −28.7 ± 2.4%
- Mean sUA level [1, 4]: 6.3 ± 0.31 mg/dL
- % Response rate for sUA falling below 4 mg/dL ([1]; Drug 1 600 mg panel): 0%
- % Response rate for sUA falling below 5 mg/dL ([1]; Drug 1 600 mg panel): 10%
- % Response rate for sUA falling below 6 mg/dL ([1]; Drug 1 600 mg panel): 30%
- Responders Day 14 (those with sUA <6 mg/dL) ([2]; Cohort 1, Day 14, responders/subjects, drug 1 200 mg qd 1 week then 400 mg qd 1 week, allopurinol 300 mg qd 2 weeks): 5/5
- Adverse event ([2]; one subject on allopurinol 300 mg qd): hyperaldosteronemia
